Test results from article PMC3407958 (Pharmacotherapy, 2010).
Like-named read-outs stand apart in the source and are kept apart here. Marks after values point to notes of the source that are not given here.

Legend:
[1] = test system: CYP3A; assay type: in vivo, human (healthy volunteers); details: for Cl/F / AUC(0-inf): geometric mean (90% CI); for AUC(0-inf): AUC0-∞, midazolam 8 mg single oral dose
[2] = test system: intestinal and hepatic CYP3A; details: cited from earlier work
[3] = human, in vivo
[4] = three weeks of garlic caplet supplementation; cited from earlier work
[5] = clinical; details: human, in vivo
[6] = human, in vivo; remark: listed apart in the source
[7] = Post-Echinacea/Pre-Echinacea, GMR (90% CI)
[8] = Post-Echinacea/Pre-Echinacea, GMR (90% CI), listed as Midazolam
[9] = midazolam 8 mg oral, 28 days of echinacea, P > 0.05

Cc1ncc2n1-c1ccc(Cl)cc1C(c1ccccc1F)=NC2 [midazolam]
Cl/F ([1]; Post-Echinacea (28 days), midazolam 8 mg oral): 77 (55–98) mL/hr
Tmax ([1]; Post-Echinacea (28 days), midazolam 8 mg oral, median (range)): 0.5 (0.5–1.5) ^c hr
AUC0-∞ geometric mean ratio [1, 7]: 0.73 (0.61, 0.85)
Cl/F geometric mean ratio [1, 7]: 1.37 (1.10, 1.63)
Cmax geometric mean ratio [1, 7]: 0.77 (0.58–0.96)
T ½ geometric mean ratio [1, 7]: 0.55 (0.40, 0.70)
AUC0-∞ geometric mean ratio [1, 8]: 0.73 (0.61–0.85)
Cl/F geometric mean ratio [1, 8]: 1.37 (1.10–1.63)
T ½ geometric mean ratio [1, 8]: 0.55 (0.40–0.70)
Cl/F ([1]; Pre-Echinacea, midazolam 8 mg oral): 56 (46–66) mL/hr
Change in midazolam exposure after E purpurea ([1]; after 28 days of E purpurea, P = 0.008): −27%
Increase in midazolam apparent oral clearance after E purpurea ([1]; after 28 days of E purpurea, P = 0.02): 37%
Reduction of midazolam half-life after E purpurea ([1]; after 28 days of E purpurea, P = 0.051): 45%
Tmax ([1]; human, plasma, po, 8 mg): 0.5 h
AUC(0-inf) ([1]; human, plasma, po, 8 mg, Post-Echinacea (28 days, 500 mg three times daily)): 104 ng·h/mL
AUC(0-inf) ([1]; human, plasma, po, 8 mg, Pre-Echinacea): 143 ng·h/mL
Change of Cmax after echinacea administration [1, 9]: unchanged
Change of Tmax after echinacea administration [1, 9]: unchanged
Increase in intestinal availability of midazolam ([2]; after E purpurea 1600 mg total daily dose for 8 days): 85%
Increase in oral availability of midazolam ([2]; after echinacea 400 mg 4 times daily for 8 days, P = 0.028): ~43%

CC(C)c1nc(CN(C)C(=O)N[C@H](C(=O)N[C@@H](Cc2ccccc2)C[C@H](O)[C@H](Cc2ccccc2)NC(=O)OCc2cncs2)C(C)C)cs1 [ritonavir]
T ½ [3]: 5.34 (4.46–6.22) hr
Tmax [3]: 1.8 (0–4.0) ^c hr

CC(C)(C)NC(=O)[C@@H]1C[C@@H]2CCCC[C@@H]2CN1C[C@@H](O)[C@H](Cc1ccccc1)NC(=O)[C@H](CC(N)=O)NC(=O)c1ccc2ccccc2n1 [saquinavir]
Decrease in AUC of saquinavir [4]: 51%

Cc1cccc(C)c1OCC(=O)N[C@@H](Cc1ccccc1)[C@@H](O)C[C@H](Cc1ccccc1)NC(=O)[C@H](C(C)C)N1CCCNC1=O [lopinavir]
T ½ [3]: 9.5 (7.4–11.6) hr
Tmax [5]: 2 h
Tmax [6]: 2 h
